In BindingDB's records for patent US10654860 (Bristol Myers Squibb, 2020):

Target: Rho-associated protein kinase 2 (Homo sapiens, UniProt O75116)
Test: In Vitro Assay
Method: The effectiveness of compounds of the present invention as ROCK inhibitors can be determined in a 30 μL, assay containing 20 mM HEPES, pH 7.5, 20 mM MgCl2, 0.015% Brij-35, 4 mM DTT, 5 μM ATP and 1.5 μM peptide substrate (FITC-AHA-AKRRRLSSLRA-OH). Compounds were dissolved in DMSO so that the final concentration of DMSO was <2%, and the reaction was initiated with Rho kinase variants. After incubation, the reaction was terminated by the addition of EDTA and the phosphorylated and non-phosphorylated peptides separated using a LABCHIP 3000 Reader (Caliper Life Sciences). […] Compounds were tested in dose-response format, and the inhibition of kinase activity was calculated at each concentration of compound.

Rho-associated protein kinase 2, sequence (O75116 whole entry): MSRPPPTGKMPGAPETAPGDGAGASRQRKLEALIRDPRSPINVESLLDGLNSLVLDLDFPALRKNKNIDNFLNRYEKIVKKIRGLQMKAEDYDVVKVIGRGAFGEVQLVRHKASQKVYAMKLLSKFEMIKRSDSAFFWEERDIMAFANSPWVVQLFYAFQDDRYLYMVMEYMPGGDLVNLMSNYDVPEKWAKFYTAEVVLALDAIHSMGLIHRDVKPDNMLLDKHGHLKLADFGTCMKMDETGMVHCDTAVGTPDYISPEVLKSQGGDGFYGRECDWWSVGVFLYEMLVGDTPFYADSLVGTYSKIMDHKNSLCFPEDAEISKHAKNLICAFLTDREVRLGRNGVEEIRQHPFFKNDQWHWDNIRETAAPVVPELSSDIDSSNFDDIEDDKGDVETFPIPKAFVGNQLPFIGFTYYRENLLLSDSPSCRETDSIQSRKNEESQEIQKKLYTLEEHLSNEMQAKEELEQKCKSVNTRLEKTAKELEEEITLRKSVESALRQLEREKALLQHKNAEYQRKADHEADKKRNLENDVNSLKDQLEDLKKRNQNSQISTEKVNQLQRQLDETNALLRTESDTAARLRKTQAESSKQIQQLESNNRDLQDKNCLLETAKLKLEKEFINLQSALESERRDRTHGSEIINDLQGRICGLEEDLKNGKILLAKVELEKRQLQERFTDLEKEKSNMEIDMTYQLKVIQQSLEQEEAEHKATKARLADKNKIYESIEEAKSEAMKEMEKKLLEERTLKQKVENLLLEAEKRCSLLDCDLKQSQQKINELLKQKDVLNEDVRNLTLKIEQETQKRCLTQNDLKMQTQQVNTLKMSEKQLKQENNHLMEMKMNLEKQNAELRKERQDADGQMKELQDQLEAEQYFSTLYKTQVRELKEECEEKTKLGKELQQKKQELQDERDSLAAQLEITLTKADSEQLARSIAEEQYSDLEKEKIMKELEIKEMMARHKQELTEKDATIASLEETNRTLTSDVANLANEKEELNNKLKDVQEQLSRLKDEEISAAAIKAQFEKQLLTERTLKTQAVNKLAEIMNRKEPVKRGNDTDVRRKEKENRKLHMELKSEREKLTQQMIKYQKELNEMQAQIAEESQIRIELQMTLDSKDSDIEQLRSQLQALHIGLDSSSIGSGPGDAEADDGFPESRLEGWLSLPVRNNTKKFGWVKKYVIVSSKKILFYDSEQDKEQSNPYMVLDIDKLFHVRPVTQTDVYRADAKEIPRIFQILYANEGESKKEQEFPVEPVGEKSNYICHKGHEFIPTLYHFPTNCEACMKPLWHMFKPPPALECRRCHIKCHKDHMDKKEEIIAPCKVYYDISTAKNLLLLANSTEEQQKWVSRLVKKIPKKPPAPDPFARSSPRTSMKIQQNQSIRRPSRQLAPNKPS

- IC50: < 10 nM
Compound: N[C@H](CCc1ccccc1)C(=O)Nc1ccc2c(c1)CCc1n[nH]cc1-2 [US10654860, Example 4]
